Columns and labels:
Type in all cases: cell-based, murine
[1] = system: Ba/F3 cells expressing c-KIT Exon 11/D816G Gleevec-resistant double mutant; test: Cell proliferation assay (CellTiter-Glo), Ba/F3 c-KIT exon 11/D816G; details: Mus musculus, BaF3, 72 h, dose range 0.6 to 10,000 nM, mean of at least three experiments, read-out: IC50 of cell proliferation inhibition, Exon 11/Gleevec-resistant Double Mutant D816G
Experimental: (§1) All mutations were confirmed by DNA sequencing.
(§2) Selective pressure was applied to the transfected cells by removing IL-3 from the culture medium. After IL-independent populations, further selective pressure was applied by also growing the cells in the presence of 1 mg/mL G418. […] The stable pools were further characterized by sequencing genomic DNA to confirm the presence of the transfected c-KIT cDNA.
(§3) This assay utilizes cellular ATP as a marker for cell proliferation/viability. […] Plates were then incubated in a 5% CO2 incubator at 37° C. for 3 days. After 72 h, 100 microliters of lysis/luciferase reagent (CellTiter-Glo, Promega G7573) was added to each well. The cells were then incubated on a shaker for 5 minutes at room temperature, and luminescence was measured on a Victor 5 (Perkin Elmer) spectrophotometer. Growth inhibition was measured by comparing luminescence signal from treated vs. untreated cells in assay plates, and the IC50 analysis of cell proliferation inhibition by compounds was analyzed using Analyze 5 in-house software. […] The IC50 values are mean values calculated from at least three experiments.

[2] = system: Ba/F3 cells expressing c-KIT Exon 11/V654A Gleevec-resistant double mutant; test: Cell proliferation assay (CellTiter-Glo), Ba/F3 c-KIT exon 11/V654A; details: Mus musculus, BaF3, 72 h, dose range 0.6 to 10,000 nM, mean of at least three experiments, read-out: IC50 of cell proliferation inhibition, Exon 11/Gleevec-resistant Double Mutant V654A
Experimental: as §1, §2, §3

[3] = system: Ba/F3 cells expressing c-KIT Exon 11/Y823D Gleevec-resistant double mutant; test: Cell proliferation assay (CellTiter-Glo), Ba/F3 c-KIT exon 11/Y823D; details: Mus musculus, BaF3, 72 h, dose range 0.6 to 10,000 nM, mean of at least three experiments, read-out: IC50 of cell proliferation inhibition, Exon 11/Gleevec-resistant Double Mutant Y823D
Experimental: as §1, §2, §3

[4] = system: c-KIT-expressing Ba/F3 cell lines, Gleevec-resistant double mutants versus Exon 11 mutant; test: Potency shift caused by c-KIT resistance mutations (summary of Table 2); details: double mutants relative to Exon 11 mutant, from Table 2
Experimental: as §1, §2, §3

[5] = system: Ba/F3 cells expressing human c-KIT with exon 11 deletion of residues 557-558; test: Cell proliferation assay (CellTiter-Glo), Ba/F3 c-KIT exon 11 deletion mutant; details: BaF3; Ba/F3, c-KIT exon 11 del 557-558; 72 h; dose range 0.6 to 10,000 nM; mean of at least three experiments; read-out: IC50 of cell proliferation inhibition, Exon 11 (WT)
Experimental: as §1, §2, §3

[6] = system: Ba/F3 cells expressing c-KIT Exon 11/N822K Gleevec-resistant double mutant; test: Cell proliferation assay (CellTiter-Glo), Ba/F3 c-KIT exon 11/N822K; details: Mus musculus, BaF3, 72 h, dose range 0.6 to 10,000 nM, mean of at least three experiments, read-out: IC50 of cell proliferation inhibition, Exon 11/Gleevec-resistant Double Mutant N822K
Experimental: as §1, §2, §3

IC50 [1]: 8 nM
IC50 [2]: 46 nM
IC50 [3]: 36 nM
IC50 [5]: 3 nM
IC50 [6]: 17 nM
Compound: CNC(=O)c1cc(Oc2ccc(NC(=O)Nc3ccc(Cl)c(C(F)(F)F)c3)cc2)ccn1 [BAY 43-9006, N-[4-chloro-3-(trifluoromethyl)phenyl]-N′-{4-[2-carbamoyl-1-oxo-(4-pyridyloxy)]phenyl} urea]
decrease of drug potency caused by c-KIT resistance mutations [4]: no more than 15 fold

From patent US20100144749A1, “TREATMENT OF CANCERS WITH ACQUIRED RESISTANCE TO KIT INHIBITORS” (priority 2005, published 2010)
